# Values of other authors as cited in patent US4603142A, “Cholesterol lowering method of use” (Wisconsin Alumni Research Foundation, priority 1984, dated 1986).
# Details: compared with tocotrienols; cited from earlier work
substance,measurement,value
Vitamin E,Lowering of cholesterol,does not cause a similar lowering of cholesterol
